Measured values as given in ChEMBL document CHEMBL4706771, “Discovery of Orally Bioavailable Ligand Efficient Quinazolindiones as Potent and Selective Tankyrases Inhibitors” (ACS Med Chem Lett, 2021).

How the values were obtained:
[1] = biological target: T1, Poly [ADP-ribose] polymerase tankyrase-1 (Homo sapiens, UniProt O95271); experiment: Inhibition of human TNKS1 incubated for 1 to 2 hrs by fluorescence polarization assay
T1 sequence (O95271 whole entry): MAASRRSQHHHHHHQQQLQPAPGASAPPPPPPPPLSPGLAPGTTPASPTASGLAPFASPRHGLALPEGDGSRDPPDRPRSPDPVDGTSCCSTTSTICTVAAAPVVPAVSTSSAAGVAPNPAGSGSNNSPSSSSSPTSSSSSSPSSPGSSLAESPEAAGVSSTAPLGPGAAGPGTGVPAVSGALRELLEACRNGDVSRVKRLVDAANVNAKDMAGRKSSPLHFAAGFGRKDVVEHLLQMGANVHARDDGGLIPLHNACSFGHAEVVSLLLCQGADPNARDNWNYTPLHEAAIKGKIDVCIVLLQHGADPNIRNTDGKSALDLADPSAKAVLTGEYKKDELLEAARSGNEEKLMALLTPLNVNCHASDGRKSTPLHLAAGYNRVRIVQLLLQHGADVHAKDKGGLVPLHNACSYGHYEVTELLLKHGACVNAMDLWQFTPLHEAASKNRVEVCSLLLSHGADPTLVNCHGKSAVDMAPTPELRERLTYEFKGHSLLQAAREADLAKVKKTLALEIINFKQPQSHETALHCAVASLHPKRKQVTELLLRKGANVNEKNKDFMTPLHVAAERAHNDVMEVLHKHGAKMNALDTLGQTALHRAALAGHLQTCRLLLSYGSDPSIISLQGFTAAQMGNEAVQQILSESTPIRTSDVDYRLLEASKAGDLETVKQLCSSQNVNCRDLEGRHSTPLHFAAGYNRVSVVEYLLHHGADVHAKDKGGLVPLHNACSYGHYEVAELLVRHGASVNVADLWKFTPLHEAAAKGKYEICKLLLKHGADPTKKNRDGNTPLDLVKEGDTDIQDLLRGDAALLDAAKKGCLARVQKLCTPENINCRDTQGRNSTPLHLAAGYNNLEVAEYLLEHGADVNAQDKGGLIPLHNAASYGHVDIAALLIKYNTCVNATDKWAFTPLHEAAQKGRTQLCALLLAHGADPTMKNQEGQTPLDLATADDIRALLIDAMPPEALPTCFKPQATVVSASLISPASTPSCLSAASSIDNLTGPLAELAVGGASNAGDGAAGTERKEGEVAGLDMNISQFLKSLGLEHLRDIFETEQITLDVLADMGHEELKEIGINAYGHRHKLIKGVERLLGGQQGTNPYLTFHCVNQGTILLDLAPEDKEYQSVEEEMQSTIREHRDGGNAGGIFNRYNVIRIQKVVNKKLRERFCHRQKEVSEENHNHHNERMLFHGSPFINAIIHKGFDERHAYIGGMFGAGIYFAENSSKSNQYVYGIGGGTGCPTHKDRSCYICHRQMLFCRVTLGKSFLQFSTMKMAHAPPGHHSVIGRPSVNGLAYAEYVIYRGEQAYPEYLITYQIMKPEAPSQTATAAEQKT

[2] = Inhibition of Wnt/beta-catenin (unknown origin) expressed in human HEK293 cells expressing MSRII transfected with DNA-LF2K incubated for 24 hrs by luciferase reporter gene assay; conditions: HEK293, 24 h
[3] = Volume of distribution in Sprague-Dawley rat at 5 mg/kg, po or 2 mg/kg, iv; type: ADME, organism-based; conditions: in vivo
[4] = Half life in Sprague-Dawley rat at 5 mg/kg, po or 2 mg/kg, iv; type: ADME, organism-based; conditions: in vivo
[5] = Clearance in Sprague-Dawley rat at 5 mg/kg, po or 2 mg/kg, iv; type: ADME, organism-based; conditions: in vivo
[6] = Dose normalised AUC in Sprague-Dawley rat at 5 mg/kg, po; type: ADME, organism-based; conditions: in vivo
[7] = Oral bioavailability in Sprague-Dawley rat at 5 mg/kg; type: ADME, organism-based; conditions: in vivo
[8] = biological target: T2, Poly [ADP-ribose] polymerase tankyrase-2 (Homo sapiens, UniProt Q9H2K2); experiment: Inhibition of human TNKS2 incubated for 1 to 2 hrs by fluorescence polarization assay
T2 sequence (Q9H2K2 whole entry): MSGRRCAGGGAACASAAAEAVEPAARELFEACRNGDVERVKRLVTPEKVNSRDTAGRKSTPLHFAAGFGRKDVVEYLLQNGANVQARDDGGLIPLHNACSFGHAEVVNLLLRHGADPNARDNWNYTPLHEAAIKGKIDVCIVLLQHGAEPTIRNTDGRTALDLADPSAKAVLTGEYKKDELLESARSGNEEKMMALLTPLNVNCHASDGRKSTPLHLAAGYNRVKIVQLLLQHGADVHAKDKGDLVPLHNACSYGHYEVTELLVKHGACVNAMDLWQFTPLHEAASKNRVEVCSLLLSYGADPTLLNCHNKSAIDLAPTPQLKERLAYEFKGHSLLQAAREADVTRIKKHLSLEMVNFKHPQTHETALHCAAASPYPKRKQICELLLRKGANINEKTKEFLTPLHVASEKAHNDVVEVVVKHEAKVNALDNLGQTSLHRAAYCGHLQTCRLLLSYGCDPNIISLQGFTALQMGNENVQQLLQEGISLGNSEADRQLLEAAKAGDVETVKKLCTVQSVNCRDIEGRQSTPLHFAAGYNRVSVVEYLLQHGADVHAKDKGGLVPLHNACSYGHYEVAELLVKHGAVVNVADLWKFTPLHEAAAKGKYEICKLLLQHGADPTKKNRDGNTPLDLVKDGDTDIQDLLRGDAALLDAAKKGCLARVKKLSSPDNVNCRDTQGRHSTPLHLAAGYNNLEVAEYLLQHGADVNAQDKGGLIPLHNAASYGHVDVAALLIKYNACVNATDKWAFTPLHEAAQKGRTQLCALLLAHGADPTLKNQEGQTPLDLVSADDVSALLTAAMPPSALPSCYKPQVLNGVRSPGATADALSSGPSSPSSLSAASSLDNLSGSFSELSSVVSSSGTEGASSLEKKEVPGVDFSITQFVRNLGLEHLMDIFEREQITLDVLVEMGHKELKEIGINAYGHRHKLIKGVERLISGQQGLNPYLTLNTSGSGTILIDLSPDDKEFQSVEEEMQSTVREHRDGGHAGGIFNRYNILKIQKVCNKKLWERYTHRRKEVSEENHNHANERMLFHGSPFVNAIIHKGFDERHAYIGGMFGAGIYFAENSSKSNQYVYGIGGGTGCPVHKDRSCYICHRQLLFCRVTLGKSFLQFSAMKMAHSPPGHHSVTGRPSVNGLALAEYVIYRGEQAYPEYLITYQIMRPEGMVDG

[9] = Volume of distribution in Sprague-Dawley rat at 0.5 mg/kg, iv; type: ADME, organism-based; conditions: in vivo
[10] = Half life in Sprague-Dawley rat at 0.5 mg/kg, iv; type: ADME, organism-based; conditions: in vivo
[11] = Clearance in Sprague-Dawley rat at 0.5 mg/kg, iv; type: ADME, organism-based; conditions: in vivo
[12] = Volume of distribution in Sprague-Dawley rat at 10 mg/kg, po or 0.5 mg/kg, iv; type: ADME, organism-based; conditions: in vivo
[13] = Oral bioavailability in Sprague-Dawley rat at 10 mg/kg; type: ADME, organism-based; conditions: in vivo
[14] = Half life in Sprague-Dawley rat at 10 mg/kg, po or 0.5 mg/kg, iv; type: ADME, organism-based; conditions: in vivo
[15] = Clearance in Sprague-Dawley rat at 10 mg/kg, po or 0.5 mg/kg, iv; type: ADME, organism-based; conditions: in vivo
[16] = Dose normalised AUC in Sprague-Dawley rat at 10 mg/kg, po; type: ADME, organism-based; conditions: in vivo

IC50 [1] [nM] | IC50 [2] [nM] | SMILES | further results
15.8 | 63.1 | N#Cc1c(Cn2c(=O)n(C[C@H]3CC[C@H](C(=O)O)CC3)c(=O)c3c(Cl)cccc32)cccc1C(F)(F)F | –
3.2 | 10 | Cc1cccc2c1c(=O)n(C[C@H]1CC[C@H](C(=O)Nc3ccncc3)CC1)c(=O)n2Cc1ccccc1C#N | –
– | 63.1 | N#Cc1c(Cn2c(=O)n(C[C@H]3CC[C@H](C(=O)O)CC3)c(=O)c3ccccc32)cccc1C(F)(F)F | Vd [3]: 0.81 L/kg; half-life [4]: 312 min; clearance [5]: 1.88 mL/min/kg; AUC/dose [6]: 1293 ng·h/mL; bioavailability [7]: 14.5%
2 | 12.6 | N#Cc1c(Cn2c(=O)n(C[C@H]3CC[C@H](C(=O)Nc4ccncc4)CC3)c(=O)c3ccccc32)cccc1C(F)(F)F | –
3.2 | 39.8 | Cc1cccc2c1c(=O)n(C[C@H]1CC[C@H](C(=O)Nc3ccncc3)CC1)c(=O)n2Cc1cccc(C(F)(F)F)c1C#N | –
4 | 15.8 | N#Cc1c(Cn2c(=O)n(C[C@H]3CC[C@H](C(=O)Nc4ccncc4)CC3)c(=O)c3c(F)cccc32)cccc1C(F)(F)F | –
15.8 | 251 | Cc1ccc2c(c1C)c(=O)n(C[C@H]1CC[C@H](C(=O)O)CC1)c(=O)n2Cc1cccc(C(F)(F)F)c1C#N | –
631 | > 5000 | N#Cc1ccccc1Cn1c(=O)n(C[C@H]2CC[C@H](C(=O)NCc3ccccc3)CC2)c(=O)c2ccccc21 | IC50 [8]: 7940 nM
3.2 | 6.3 | N#Cc1c(Cn2c(=O)n(C[C@H]3CC[C@H](C(=O)Nc4ccncc4)CC3)c(=O)c3c(Cl)cccc32)cccc1C(F)(F)F | –
25.1 | 63.1 | Cc1c(C(N)=O)ccc2c1c(=O)n(C[C@H]1CC[C@H](C(=O)Nc3ccncc3)CC1)c(=O)n2Cc1cccc(C(F)(F)F)c1C#N | –
2.5 | 10 | Cc1cccc2c1c(=O)n(C[C@H]1CC[C@H](C(=O)Nc3cnn(C)c3)CC1)c(=O)n2Cc1cccc(C(F)(F)F)c1C#N | –
– | 20 | Cc1c(F)ccc2c1c(=O)n(C[C@H]1CC[C@H](C(=O)O)CC1)c(=O)n2Cc1cccc(C(F)(F)F)c1C#N | –
4 | 15.8 | Cc1ccc(NC(=O)[C@H]2CC[C@H](Cn3c(=O)c4c(C)cccc4n(Cc4cccc(C(F)(F)F)c4C#N)c3=O)CC2)cn1 | –
39.8 | 63.1 | N#Cc1c(Cn2c(=O)n(C[C@H]3CC[C@H](C(=O)O)CC3)c(=O)c3c(F)cccc32)cccc1C(F)(F)F | –

Continued, compound first:

SMILES | IC50 [1] [nM] | IC50 [2] [nM] | further results
Cc1cccc2c1c(=O)n(C[C@H]1CC[C@H](C(=O)Nc3ccnnc3)CC1)c(=O)n2Cc1cccc(C(F)(F)F)c1C#N | 2.5 | 31.6 | –
Cc1cccc(Cn2c(=O)n(C[C@H]3CC[C@H](C(=O)Nc4ccncc4)CC3)c(=O)c3c(C)cccc32)c1C#N | 2 | 31.6 | –
COc1cccc2c1c(=O)n(C[C@H]1CC[C@H](C(=O)O)CC1)c(=O)n2Cc1cccc(C(F)(F)F)c1C#N | 8.1 | 20 | –
N#Cc1ccccc1Cn1c(=O)n(C[C@H]2CC[C@H](C(=O)Nc3ccncc3)CC2)c(=O)c2nc[nH]c21 | 100 | 251 | –
N#Cc1ccccc1Cn1c(=O)n(C[C@H]2CC[C@H](C(=O)Nc3ccncc3)CC2)c(=O)c2ncccc21 | 126 | 79.4 | –
COc1cccc2c1c(=O)n(C[C@H]1CC[C@H](C(=O)Nc3ccncc3)CC1)c(=O)n2Cc1cccc(C(F)(F)F)c1C#N | 4 | 12.6 | –
Cc1cccc2c1c(=O)n(C[C@H]1CC[C@H](C(=O)Nc3ccncc3)CC1)c(=O)n2Cc1cccc(Cl)c1C#N | 2 | 6.3 | Vd [9]: 2.1 L/kg; half-life [10]: 37.2 min; clearance [11]: 45.9 mL/min/kg
Cc1c(F)ccc2c1c(=O)n(C[C@H]1CC[C@H](C(=O)Nc3ccncc3)CC1)c(=O)n2Cc1cccc(C(F)(F)F)c1C#N | 3.2 | 15.8 | –
N#Cc1ccccc1Cn1c(=O)n(C[C@H]2CC[C@H](C(=O)Nc3ccncc3)CC2)c(=O)c2ccncc21 | 63.1 | 25.1 | –
Cc1ccc2c(c1C)c(=O)n(C[C@H]1CC[C@H](C(=O)Nc3ccncc3)CC1)c(=O)n2Cc1cccc(C(F)(F)F)c1C#N | 6.3 | 25.1 | –
N#Cc1ccccc1Cn1c(=O)n(C[C@H]2CC[C@H](C(=O)Nc3ccncc3)CC2)c(=O)c2ccccc21 | 4 | 6.3 | Vd [12]: 4.42 L/kg; bioavailability [13]: 3.6%; half-life [14]: 43.2 min; clearance [15]: 91.2 mL/min/kg; AUC/dose [16]: 37.7 ng·h/mL
